Results reported in US5821240A, “Pyrimido[5,4]-dipyrimidines, pharmaceuticals containing them, their use and processes for the preparation thereof” (Dr. Karl Thomae GmbH, priority 1996, dated 1998).

Assays:
[1] = tested on: F/L-HERc cells expressing human EGF-R; assay: Inhibition of EGF-dependent proliferation of F/L-HERc cells; format: cell-based, murine cell line; human EGF-R; conditions: EGF 20 ng/ml, 37° C., 48 hours
Source text: (§1) In this case, an interleukin-3 (IL-3)-dependent cell line of murine origin was used and was genetically modified in such a way that it expresses functional human EGF-R. Proliferation of these cells, which are called F/L-HERc, can therefore be stimulated either by murine IL-3 or by EGF (see von Ruden, T. et al. in EMBO J. 7, 2749-2756 (1988) and Pierce, J. H. et al. in Science 239, […] (1988)).
(§2) The starting material for the F/L-HERc cells was the cell line FDC-P1 whose preparation has been described by Dexter, T. M. et al. in J. Exp. Med. 152, 1036-1047 (1980). However, it is also possible as an alternative to use other growth factor-dependent cells (see, for example, Pierce, J. H. et al. in Science 239, 628-631 (1988), Shibuya, H. et al. in Cell 70, 57-67 (1992) and Alexander, W. S. et al. in EMBO J. 10, 3683-3691 (1991)). Recombinant retroviruses as described in von Ruden, T. et al., EMBO J. 7, 2749-2756 (1988) Were used for expression of the human EGF-R cDNA (see Ullrich, A. et al. in Nature 309, 418-425 (1984)), with the difference that the retroviral vector LXSN (see Miller, A. D. et al. in BioTechniques 7, 980-990 (1989)) was employed for expression of the EGF-R cDNA, and the line GP+E86 (see Markowitz, D. et al. in J. Virol. 62, 1120-1124 (1988)) was used as packaging cell.
(§3) F/L-HERc cells were cultivated in RPMI/1640 medium (BioWhittaker), supplemented with 10% fetal calf serum (FCS, Boehringer Mannheim), 2 mM glutamine (BioWhittaker), standard antibiotics and 20 ng/ml human EGF (Promega), at 37° C. and 5% CO2. To investigate the inhibitor activity of the compounds according to the invention, 1.5×10^4 cells were cultivated in the above medium (200 μl) per well in triplicates in 96-well plates, stimulating proliferation of the cells either with EGF (20 ng/ml) or with murine IL-3. The source used for IL-3 was culture supernatants from the cell line X63/0 mIL-3 (see Karasuyama, H. et al. in Eur. J. Immunol. 18, 97-104 (1988)). The compounds according to the invention were dissolved in 100% dimethyl sulphoxide (DMSO) and added in various dilutions to the cultures, with the maximum DMSO concentration being 1%. The cultures were incubated at 37° C. for 48 hours.
(§4) To determine the inhibitory activity of the compounds according to the invention, the relative cell count was measured in O.D. units using the Cell Titre 96™ AQueous Non-Radioactive Cell Proliferation Assay (Promega). The relative cell count was calculated as a percent of the control (F/L-HERc cells without inhibitor), and the concentration of active substance which inhibits the proliferation of the cells by 50% (IC50) was inferred.

F/L-HERc cells = assay: Inhibition of IL-3-dependent proliferation of F/L-HERc cells; format: cell-based; conditions: Mus musculus, murine IL-3, 37° C., 48 hours
Source text: as §1, §2, §3, §4

SMILES | IC50 [1] [nM] | IC50 (F/L-HERc cells) [nM]
COC(=O)NC1CCN(c2ncc3ncnc(Nc4ccc(F)c(Cl)c4)c3n2)CC1 [1(1), 4-[(3-Chloro-4-fluorophenyl)amino]-6-[4-methoxycarbonylamino-1-piperidinyl]pyrimido[5,4-d]pyrimidine] | 34 | > 10000
CC(C)(C)OC(=O)N1CCC(Nc2ncc3ncnc(Nc4ccc(F)c(Cl)c4)c3n2)CC1 [1(2), 4-[(3-Chloro-4-fluorophenyl)amino]-6-[1-tert-butyloxycarbonyl-4-piperidinylamino]pyrimido[5,4-d]pyrimidine] | 44 | > 10000
Nc1c(Br)cc(Nc2ncnc3cnc(N4CCC(N)CC4)nc23)cc1Br [1(3), 4-[(4-Amino-3,5-dibromophenyl)amino]-6-[4-amino-1-piperidinyl]pyrimido[5,4-d]pyrimidine] | 67 | > 1000
O=CNC1CCN(c2ncc3ncnc(Nc4ccc(F)c(Cl)c4)c3n2)CC1 [1(5), 4-[(3-Chloro-4-fluorophenyl)amino]-6-[4-formylamino-1-piperidinyl]pyrimido[5,4-d]pyrimidine] | 21 | > 10000
NCCNc1ncc2ncnc(Nc3ccc(F)c(Cl)c3)c2n1 [1(6), 4-[(3-Chloro-4-fluorophenyl)amino]-6-[2-aminoethylamino]-pyrimido[5,4-d]pyrimidine] | 123 | > 10000
NCCCNc1ncc2ncnc(Nc3ccc(F)c(Cl)c3)c2n1 [1(9), 4-[(3-Chloro-4-fluorophenyl)amino]-6-[3-aminopropylamino]pyrimido[5,4-d]pyrimidine] | 18 | > 10000
NCCCCNc1ncc2ncnc(Nc3ccc(F)c(Cl)c3)c2n1 [1(10), 4-[(3-Chloro-4-fluorophenyl)amino]-6-[4-aminobutylamino]pyrimido[5,4-d]pyrimidine] | 17 | > 10000
CC(N)CNc1ncc2ncnc(Nc3ccc(F)c(Cl)c3)c2n1 (stereo not shown) [1(11), 4-[(3-Chloro-4-fluorophenyl)amino]-6-[2-amino-1-propylamino]pyrimido[5,4-d]pyrimidine] | 75 | > 10000
CN1CCCN(c2ncc3ncnc(Nc4ccc(F)c(Cl)c4)c3n2)CC1 [1(12), 4-[(3-Chloro-4-fluorophenyl)amino]-6-[4-methyl-1-homopiperazinyl]pyrimido[5,4-d]pyrimidine] | 375 | > 10000
Fc1ccc(Nc2ncnc3cnc(N4CCCNCC4)nc23)cc1Cl [1(13), 4-[(3-Chloro-4-fluorophenyl)amino]-6-[1-homopiperazinyl]-pyrimido[5,4-d]pyrimidine] | 150 | > 10000
Nc1ccc(CNc2ncc3ncnc(Nc4ccc(F)c(Cl)c4)c3n2)cc1 [1(14), 4-[(3-Chloro-4-fluorophenyl)amino]-6-[4-aminobenzylamino]pyrimido[5,4-d]pyrimidine] | 28 | > 10000
COC(=O)[C@H]1CC[C@H](Nc2ncc3ncnc(Nc4cc(Cl)c(N)c(Cl)c4)c3n2)CC1 [1(15), 4-[(4-Amino-3,5-dichlorophenyl)amino]-6-[(trans-4-methoxycarbonylcyclohexyl)amino]pyrimido[5,4-d]pyrimidine] | 15 | > 10000
CCN(CCO)c1ncc2ncnc(Nc3ccc(F)c(Cl)c3)c2n1 [1(23), 4-[(3-Chloro-4-fluorophenyl)amino]-6-[N-ethyl-N-(2-hydroxyethyl)amino]pyrimido[5,4-d]pyrimidine] | 63 | > 1000
Fc1ccc(Nc2ncnc3cnc(NCC45CCN(CC4)CC5)nc23)cc1Cl [1(24), 4-[(3-Chloro-4-fluorophenyl)amino]-6-[4-quinuclidinylmethylamino]pyrimido[5,4-d]pyrimidine] | 9 | > 1000
COC(CNc1ncc2ncnc(Nc3ccc(F)c(Cl)c3)c2n1)OC [1(25), 4-[(3-Chloro-4-fluorophenyl)amino]-6-[2,2-dimethoxyethylamino]pyrimido[5,4-d]pyrimidine] | 28 | > 20000
CC(C)(C)OC(=O)N1CCC(CNc2ncc3ncnc(Nc4ccc(F)c(Cl)c4)c3n2)CC1 [1(26), 4-[(3-Chloro-4-fluorophenyl)amino]-6-[(1-tert-butyloxycarbonyl-4-piperidinyl)methylamino]pyrimido[5,4-d]pyrimidine] | 200 | > 20000
CC(C)(N)CNc1ncc2ncnc(Nc3ccc(F)c(Cl)c3)c2n1 [1(27), 4-[(3-Chloro-4-fluorophenyl)amino]-6-[2-amino-2-methyl-1-propylamino]pyrimido[5,4-d]pyrimidine] | 40 | > 10000
CN1CCC(N(C)c2ncc3ncnc(Nc4ccc(F)c(Cl)c4)c3n2)CC1 [1(28), 4-[(3-Chloro-4-fluorophenyl)amino]-6-[N-methyl-N-(1-methyl-4-piperidinyl)amino]pyrimido[5,4-d]pyrimidine] | 14 | 10000
Fc1ccc(Nc2ncnc3cnc(NCC4CCNCC4)nc23)cc1Cl [1(29), 4-[(3-Chloro-4-fluorophenyl)amino]-6-[4-piperidinylmethylamino]pyrimido[5,4-d]pyrimidine] | 13 | > 20000
Fc1ccc(Nc2ncnc3cnc(N4CCC(N5CCOCC5)CC4)nc23)cc1Cl [1(30), 4-[(3-Chloro-4-fluorophenyl)amino]-6-[4-(morpholino)-1-Piperidinyl]pyrimido[5,4-d]pyrimidine] | 125 | > 20000
Fc1ccc(Nc2ncnc3cnc(N4CCC(N5CCCC5)CC4)nc23)cc1Cl [1(31), 4-[(3-Chloro-4-fluorophenyl)amino]-6-[4-(1-pyrrolidinyl)-1-piperidinyl]pyrimido[5,4-d]pyrimidine] | 103 | 10000
COc1cccc(N2CCN(c3ncc4ncnc(Nc5ccc(F)c(Cl)c5)c4n3)CC2)c1 [1(32), 4-[(3-Chloro-4-fluorophenyl)amino]-6-[4-(3-methoxyphenyl)-1-piperazinyl]pyrimido[5,4-d]pyrimidine] | > 1000 | > 20000
COc1ccccc1N1CCN(c2ncc3ncnc(Nc4ccc(F)c(Cl)c4)c3n2)CC1 [1(33), 4-[(3-Chloro-4-fluorophenyl)amino]-6-[4-(2-methoxyphenyl)-1-piperazinyl]pyrimido[5,4-d]pyrimidine] | > 1000 | > 20000
CC(C)(C)OC(=O)N1CCN(CCNc2ncc3ncnc(Nc4ccc(F)c(Cl)c4)c3n2)CC1 [1(35), 4-[(3-Chloro-4-fluorophenyl)amino]-6-[2-(4-tert-butyloxycarbonyl-1-piperazinyl)ethylamino]pyrimido[5,4-d]pyrimidine] | 240 | > 1000
CC1CC(c2ccc(O)cc2)CN1c1ncc2ncnc(Nc3ccc(F)c(Cl)c3)c2n1 (stereo not shown) [1(36), 4-[(3-Chloro-4-fluorophenyl)amino]-6-[4-(4-hydroxyphenyl)-2-methyl-1-pyrrolidinyl]pyrimido[5,4-d]pyrimidine] | 140 | > 1000
NCC1CCCC(CNc2ncc3ncnc(Nc4ccc(F)c(Cl)c4)c3n2)C1 (stereo not shown) [1(38), 4-[(3-Chloro-4-fluorophenyl)amino]-6-[3-(aminomethyl)cyclohexylmethylamino]pyrimido[5,4-d]pyrimidine] | 51 | > 1000
CN1CCC(C2CCN(c3ncc4ncnc(Nc5ccc(F)c(Cl)c5)c4n3)CC2)CC1 [1(41), 4-[(3-Chloro-4-fluorophenyl)amino]-6-[4-(1-methyl-4-piperidinyl)-1-piperidinyl]pyrimido[5,4-d]pyrimidine] | 200 | > 1000
Fc1ccc(Nc2ncnc3cnc(NC4CCCN(Cc5ccccc5)CC4)nc23)cc1Cl (stereo not shown) [1(42), 4-[(3-Chloro-4-fluorophenyl)amino]-6-[1-benzyl-4-(1-azacycloheptyl)amino]pyrimido[5,4-d]pyrimidine] | > 100 | > 1000
CN1CCN(C2CCC(Nc3ncc4ncnc(Nc5ccc(F)c(Cl)c5)c4n3)CC2)CC1 (stereo not shown) [1(46), 4-[(3-Chloro-4-fluorophenyl)amino]-6-[4-(1-methyl-4-piperazinyl)cyclohexylamino]pyrimido[5,4-d]pyrimidine] | 2 | > 1000
